Assay results: patent publication US20120252774A1, “STEROID TETROL SOLID STATE FORMS - 2” (priority 2010, published 2012)

Tests used:
[1] = system: ovalbumin (OVA) sensitized mouse model of asthma; assay: ovalbumin (OVA) sensitized mouse model of asthma; format: in vivo, BALB/c mice; conditions: for IL-13: once daily subcutaneous injection, dexamethasone 5 mg/kg, triol 1 mg/mouse; for level of IL-5 in lung tissue: vehicle value stated for day 38, subcutaneous treatment
Method: BALB/c mice were sensitized by intraperitoneal injection with OVA (in alum adjuvant) on days 1, and 12. Airways were challenged with OVA on days 28 and 30 by delivery of OVA to the lung, or with saline. On day 31, six mice were with saline and 6 mice challenged with OVA were sacrificed and lung tissue was analyzed. The remaining animals were divided into 6 groups (6 mice per group). Groups of the mice were treated once daily by subcutaneous injection as follows. Group 1 vehicle control (0.1% carboxymethyl cellulose, 0.9% saline, 2% Tween 80, 0.05% phenol). Group 2 dexamethasone (5 mg/kg). Group 3 androstane-3α,16α,17α-triol (1 mg/mouse). Three animals in groups 1-3 were sacrificed on day 35 at 1 hr after final treatment and the remaining 3 animals in groups 1-3 were sacrificed on day 38.

[2] = system: bone marrow-derived mast cells (BMMC); assay: mast cell stimulus-coupled degranulation (release of β-glucuronidase); format: cell-based, Balb/C mice
Method: In another protocol, a population of mast cells was cultivated from murine bone marrow as follows. Briefly, bone marrows from Balb/C mice were flushed from the femur using PBS and a 27 g needle. The cells were cultured in a mixture of ⅔ RPMI-1640 with 19% FBS and cells that secreted IL-3. The bone marrow cells were allowed to differentiate for 18-25 days in the IL-3-containing mixture before being used for experiments. Bone marrow cells cultured in this manner have a phenotype similar to mucosal mast cells and are referred to as bone marrow-derived mast cells (BMMC).
The homogeneity of the in vitro propagated mast cells was checked by conventional flow cytometric techniques and staining for cell-type specific markers. Between days 14 and 21 of propagation, mature mast cells were harvested and prepared for the test cultures. The objective was to assess of the effect of compounds such as dehydroepiandrosterone on mast cell stimulus-coupled degranulation. Prepared mast cells were dispensed into test culture wells at a density of 1×10^7 cells/mL. In control cultures, mast cells were induced to degranulate after cross linking of IgE receptors with IgE antigen-antibody complexes. In parallel groups of cultures mast cells were preincubated dehydroepiandrosterone at various doses followed by activation using anti-IgE antibody. There was no detectable degranulation of mast cells as measured by release of β-glucuronidase from cytosolic storage granules of the cells in the absence of the stimulus. Introduction of anti-Ig-E receptor antibody to the cultures caused a significant release of β-glucuronidase.

[3] = day 35, 1 hr after final treatment

Compound | capacity to limit eosinophil burden and reduce key inflammatory mediators (IL-5, IL-13, cysteinyl leukotrienes) ([1]; OVA sensitized mice) | IL-13 increase (rebound) after treatment ([1]; compared with dexamethasone treated animals) | IL-13 [1, 3] | IL-13 ([1]; day 38) | level of IL-5 in lung tissue [1] | inhibition at 100 µM ([2]; Mus musculus, BMMC, 100 μM, pre-exposed 5 to 10 minutes before activation with anti-IgE antigen-antibody complexes) | inhibition of degranulation at lower levels ([2]; levels lower than 100 μM) | degranulation on exposure to compound alone ([2]; no stimulus, release of β-glucuronidase)
C[C@]12CC[C@H]3[C@@H](CCC4C[C@H](O)CC[C@@]43C)[C@@H]1C[C@@H](O)[C@H]2O (stereo partly drawn) [androstane-3α,16α,17α-triol] | limit eosinophil burden and to reduce key inflammatory mediators | did not generate an IL-13 increase | 195 pg/mL | 210 pg/mL | 90 pg/mL |  |  | 
C[C@@H]1C[C@H]2[C@@H]3CCC4=CC(=O)C=C[C@]4(C)[C@@]3(F)[C@@H](O)C[C@]2(C)[C@@]1(O)C(=O)CO [dexamethasone] |  |  | 340 pg/mL | 390 pg/mL | 145 pg/mL |  |  | 
C[C@]12CC[C@H](O)CC1=CC[C@@H]1[C@@H]2CC[C@]2(C)C(=O)CC[C@@H]12 [dehydroepiandrosterone] |  |  |  |  |  | ~70% | proportionately less capacity to inhibit degranulation | no measurable degranulation
